Data set [1] in a line: Repeat-dose study in monkeys, pharmacokinetics (14 and 56 days). The note with it: monkey; for AUC: exposure - AUC.
For data set [2], the target named is BSEP (Homo sapiens, UniProt O95342). Kind of data set: in vitro. The following applies: membrane vesicle preparations (BSEP).
Method: In the vesicular transport inhibition assay (for BSEP, MRP) compounds were incubated with membrane vesicle preparations and the probe substrate. Incubations were carried out in the presence of 4 mM ATP or AMP to distinguish between transporter-mediated uptake and passive diffusion into the vesicles. For MRP2 and MRP3, reactions were carried out in the presence of 2 mM glutathione. Compounds were added to the reaction mixture in 0.75 μL of solvent (1% of the final incubation volume). […] Reactions were initiated by the addition of 25 μL of 12 mM MgATP (or 12 mM AMP in assay buffer as a background control) and preincubated separately. Reactions were quenched by the addition of 200 μL of ice-cold washing buffer and immediate filtration via glass fiber filters mounted on a 96-well plate (filter plate). The filters were washed (5 × 200 μL of ice-cold washing buffer), dried, and the amount of substrate inside the filtered vesicles was determined by liquid scintillation counting.
A short description of data set [3]: Stability in cryopreserved hepatocytes, monkey. The note with it: for Compound Remaining (% of 0 min): Hepatocyte Stability Monkey, single replicates. The format is in vitro ADME. As to the method:
The final incubation volume was 500 μL. Two control compounds (verapamil and donepezil) were included for each microsomal species, along with the appropriate vehicle control. The reactions were terminated by transferring 50 μL of incubate to 100 μL methanol containing an internal standard (metoprolol) at appropriate time points (0, 10, 20, 40, 60, and 120 min for the test compound and 0, 5, 10, 20, 40, and 60 min for the control compounds). The termination plates were centrifuged at 4000 x g at 4°C for 30 min to precipitate the protein. The supernatants were then collected for analysis, and LC-MS/MS was used for detection purposes. The system consisted of an Acquity™ Binary Solvent Manager, Acquity™ 4-position heated column manager, 2777 Ultra High Pressure Autosampler, and a Xevo-TQ MS triple quadrupole mass spectrometer (Waters Ltd., Herts, UK). This process was carried out twice.

Data set [4] in a line: Repeat-dose study in diabetic cynomolgus monkeys, serum ALT and AST. The format is in vivo. The following applies: 2.2 and 22 mg/kg, 28 treatment days. The text has this: All animals aged 8–20 years had ad libitum access to water and were fed twice daily with a complete nutritionally balanced diet (Beijing Keao Xieli Feed Co., LTD, Beijing, China) enriched with seasonal fruits. The cynomolgus monkeys used in the study were cared for and handled in accordance with all applicable Association for Assessment and Accreditation of Laboratory Animal Care regulations and guidelines. […] After each treatment (weighing, bleeding, or dosing), the animals were clinically observed on the day of the procedure and, if previously anesthetized, the animals were monitored to stand up and alert. Nine selected diabetic animals were subjected to daily test compound (powder) dosing via natural feeding with bananas (n = 3). Blood from overnight-fasted animals was collected weekly in the morning for measurement of serum ALT and AST levels on days 0, 7, 14, 21, 28, and 35. Blood samples (1.5 mL) were collected from a cephalic or saphenous vein into BD Vacutainer® and K2-EDTA tubes.

For data set [5] the following is noted: 600 mg/kg for 14 days; cited from earlier work.
[6] abbreviates: dose 50 mg/kg, Day 1, individual animals, 50 mg/kg.
[7] abbreviates: dose 50 mg/kg, Day 14, individual animals, 50 mg/kg.
Where [8] appears, read: dose 100 mg/kg, Day 1, individual animals, 100 mg/kg.
Where [9] appears, read: dose 100 mg/kg, Day 14, individual animals, 100 mg/kg.
Setting [10] is: dose 150 mg/kg, Day 1, individual animals, 150 mg/kg.
The mark [11] stands for this setting: dose 150 mg/kg, Day 56, individual animals, 150 mg/kg.
[12] abbreviates: dose 200 mg/kg, Day 1, individual animals, 200 mg/kg.
Where [13] appears, read: dose 200 mg/kg, Day 14, individual animals, 200 mg/kg.
[14] abbreviates: cryopreserved hepatocytes (suspension), Monkey (Cynomolgus) hepatocytes, mean n = 2.

“And” between values parts separate entries of the source, which are not always exact repeats. Equal entries are not always repeated.

For orientation: AUC means concentration integrated over time. The term Cmax denotes the maximum level reached in the sampled fluid or tissue. Broadly, the IC50 is the midpoint of a concentration-inhibition curve. A word on the half-life: it is the time needed for the level to fall by half in the phase considered. What is called microsomal CLint is a measure of how fast metabolising enzymes remove a compound, apart from limits set by blood flow.

Sequence of BSEP (O95342 whole entry): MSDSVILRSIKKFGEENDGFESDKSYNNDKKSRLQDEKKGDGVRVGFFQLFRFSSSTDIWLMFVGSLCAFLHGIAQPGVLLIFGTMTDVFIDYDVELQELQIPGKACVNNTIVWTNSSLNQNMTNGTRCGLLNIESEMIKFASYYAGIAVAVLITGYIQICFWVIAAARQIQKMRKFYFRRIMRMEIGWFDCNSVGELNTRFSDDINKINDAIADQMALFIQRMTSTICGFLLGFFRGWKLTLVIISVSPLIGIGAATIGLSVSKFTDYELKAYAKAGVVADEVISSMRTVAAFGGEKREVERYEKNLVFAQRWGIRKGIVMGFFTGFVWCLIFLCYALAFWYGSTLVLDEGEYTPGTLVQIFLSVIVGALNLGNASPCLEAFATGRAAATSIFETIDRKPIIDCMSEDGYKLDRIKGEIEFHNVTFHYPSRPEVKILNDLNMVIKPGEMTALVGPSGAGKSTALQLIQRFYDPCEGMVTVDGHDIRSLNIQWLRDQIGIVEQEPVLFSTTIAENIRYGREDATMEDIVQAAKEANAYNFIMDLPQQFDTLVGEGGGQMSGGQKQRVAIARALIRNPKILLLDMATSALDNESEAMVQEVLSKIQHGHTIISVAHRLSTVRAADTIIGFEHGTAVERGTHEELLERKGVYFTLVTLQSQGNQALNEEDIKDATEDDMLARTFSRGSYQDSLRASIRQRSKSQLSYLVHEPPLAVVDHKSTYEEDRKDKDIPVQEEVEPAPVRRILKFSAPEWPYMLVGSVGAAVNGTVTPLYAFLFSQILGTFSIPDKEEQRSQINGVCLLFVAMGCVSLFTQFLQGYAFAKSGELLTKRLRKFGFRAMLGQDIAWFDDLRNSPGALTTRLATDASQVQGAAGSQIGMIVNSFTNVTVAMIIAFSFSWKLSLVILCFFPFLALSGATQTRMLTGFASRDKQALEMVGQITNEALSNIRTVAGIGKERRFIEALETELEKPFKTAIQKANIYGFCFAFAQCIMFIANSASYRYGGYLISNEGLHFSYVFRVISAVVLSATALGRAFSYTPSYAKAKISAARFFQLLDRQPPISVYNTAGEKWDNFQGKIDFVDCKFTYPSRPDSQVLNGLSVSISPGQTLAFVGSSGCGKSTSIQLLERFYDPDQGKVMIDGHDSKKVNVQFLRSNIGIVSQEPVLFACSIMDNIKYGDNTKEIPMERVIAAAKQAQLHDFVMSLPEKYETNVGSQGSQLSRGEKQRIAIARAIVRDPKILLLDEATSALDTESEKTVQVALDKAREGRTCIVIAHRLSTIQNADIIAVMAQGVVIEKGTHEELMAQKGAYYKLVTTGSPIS

Consider `CC#C[C@@H](CC(=O)O)c1ccc(OCC(C)=C(C)C)cc1` [CPL207280], for which the AUC in data set [1] (both, Cynomolgus, plasma, po, 100 mg/kg, dose 100 mg/kg, Day 1, individual animals) was found to be 334 µg·h/mL; in data set [1] (both, Cynomolgus, plasma, po, 100 mg/kg, dose 100 mg/kg, Day 14, individual animals), 552 µg·h/mL; in data set [1] (both, cynomolgus, plasma, po, 200 mg/kg, dose 200 mg/kg, Day 1, individual animals), 794 µg·h/mL; in data set [1] (both, cynomolgus, plasma, po, 200 mg/kg, dose 200 mg/kg, Day 14, individual animals) it was 919 µg·h/mL. In addition, the Cmax in data set [1] (both, cynomolgus, plasma, po, 50 mg/kg, Cmax, dose 50 mg/kg, Day 1, individual animals) was 38.5 µg/mL; in data set [1] (both, cynomolgus, plasma, po, 50 mg/kg, Cmax, dose 50 mg/kg, Day 14, individual animals) it was 59.8 µg/mL; in data set [1] (both, plasma, po, 200 mg/kg, Cmax, dose 200 mg/kg, Day 1, individual animals), 258 µg/mL; in data set [1] (setting [6]), 54.2432 µg/mL and 70.1198 µg/mL and 73.0824 µg/mL; in data set [1] (setting [7]) it was 77.3656 µg/mL and 85.376 µg/mL and 71.8017 µg/mL; in data set [1] (setting [8]), 47.7304 µg/mL and 196.843 µg/mL and 120.978 µg/mL and 122.802 µg/mL. The peak concentration (Cmax) in data set [1] (setting [9]) was 59.7137 µg/mL and 97.7733 µg/mL and 114.927 µg/mL and 30.391 µg/mL; in data set [1] (setting [10]) it was 174.84 µg/mL and 194.31 µg/mL and 41.31 µg/mL and 61.81 µg/mL and 148.23 µg/mL and 203.64 µg/mL and 215.41 µg/mL and 167.94 µg/mL; in data set [1] (setting [11]), 206.99 µg/mL and 230.13 µg/mL and 188.65 µg/mL and 99.77 µg/mL and 256.14 µg/mL and 172.69 µg/mL and 25.09 µg/mL and 47.76 µg/mL; in data set [1] (setting [12]) it was 146.587 µg/mL and 153.261 µg/mL and 191.742 µg/mL; in data set [1] (setting [13]) it was 263.213 µg/mL and 90.4785 µg/mL and 181.854 µg/mL and 224.986 µg/mL. Also, the “exposure - AUC” value in data set [1] (setting [6]) was 85.565 µg·h/mL and 262.448 µg·h/mL and 140.708 µg·h/mL and 87.498 µg·h/mL and 100.461 µg·h/mL and 109.347 µg·h/mL and 254.256 µg·h/mL and 110.743 µg·h/mL and 146.423 µg·h/mL and 105.958 µg·h/mL and 142.73 µg·h/mL and 220.718 µg·h/mL; in data set [1] (setting [7]) it was 101.909 µg·h/mL and 132.812 µg·h/mL and 431.268 µg·h/mL and 124.571 µg·h/mL; in data set [1] (dose 50 mg/kg, Day 56, individual animals, 50 mg/kg), 150.303 µg·h/mL and 89.075 µg·h/mL and 182.055 µg·h/mL and 206.125 µg·h/mL and 124.755 µg·h/mL and 213.673 µg·h/mL and 113.523 µg·h/mL and 83.328 µg·h/mL; in data set [1] (setting [8]), 385.402 µg·h/mL and 219.918 µg·h/mL and 309.18 µg·h/mL; in data set [1] (setting [9]), 540.113 µg·h/mL and 349.314 µg·h/mL and 371.77 µg·h/mL; in data set [1] (setting [10]), 687.155 µg·h/mL and 716.453 µg·h/mL and 299.365 µg·h/mL and 303.408 µg·h/mL and 583.353 µg·h/mL and 708.01 µg·h/mL and 517.538 µg·h/mL and 598.748 µg·h/mL. In addition, the “exposure - AUC” value is 476.098 µg·h/mL and 561.835 µg·h/mL and 462.75 µg·h/mL and 833.928 µg·h/mL and 555.34 µg·h/mL and 670.743 µg·h/mL and 435.418 µg·h/mL and 360.168 µg·h/mL in data set [1] (setting [11]); 842.687 µg·h/mL and 783.604 µg·h/mL and 691.713 µg·h/mL in data set [1] (setting [12]); 610.926 µg·h/mL and 654.718 µg·h/mL and 646.623 µg·h/mL in data set [1] (setting [13]); 1583.82 µg·h/mL and 721.808 µg·h/mL and 793.135 µg·h/mL and 1183 µg·h/mL and 1366.178 µg·h/mL and 895.14 µg·h/mL and 850.363 µg·h/mL and 1425.683 µg·h/mL and 1258.01 µg·h/mL and 575.98 µg·h/mL and 469.06 µg·h/mL and 783 µg·h/mL in data set [1] (dose 250 mg/kg, Day 1, individual animals, 250 mg/kg); 1170.11 µg·h/mL and 1015.218 µg·h/mL and 686.383 µg·h/mL and 1887.035 µg·h/mL and 975.73 µg·h/mL and 1235.128 µg·h/mL and 1213.253 µg·h/mL and 997.608 µg·h/mL and 1100.488 µg·h/mL and 1004.075 µg·h/mL and 831.145 µg·h/mL and 1255.683 µg·h/mL in data set [1] (dose 250 mg/kg, Day 56, individual animals, 250 mg/kg). The concentration for half-maximal inhibition (IC50) in data set [2] is above 100 µM. Moreover, the “Compound Remaining (% of 0 min)” value is 100 % of 0 min in data set [3] (0 min); 65.3 % of 0 min and 63.2 % of 0 min in data set [3] (10 min); 38.4 % of 0 min and 39.7 % of 0 min in data set [3] (20 min); 17.5 % of 0 min and 19.5 % of 0 min in data set [3] (40 min); 8.86 % of 0 min and 11.4 % of 0 min in data set [3] (60 min); 8.94 % of 0 min and 8.99 % of 0 min in data set [3] (120 min). Besides, in data set [3] (setting [14]), the half-life at 3 μM amounted to 17 min. The compound further returned a microsomal CLint at 3 μM in data set [3] (setting [14]) of 81.4 µL/min/mg. Besides, the “liver safety markers (ALT, AST) vs vehicle group” value in data set [4] is on record as “none of the doses altered liver safety markers”.

Regarding `Cc1cc(OCCCS(C)(=O)=O)cc(C)c1-c1cccc(COc2ccc3c(c2)OC[C@H]3CC(=O)O)c1` [TAK-875, fasiglifam, reference compound], the “effect on ALT, TBA, T-BIL in dogs” value in data set [5] is reported as “observed in only 2 of 6 animals”.

(Values after publication PMC8459971, “Evaluation of the hepatotoxicity of the novel GPR40 (FFAR1) agonist CPL207280 in the rat and monkey” (PLoS ONE, 2021).)
